pIC50: −log10 of the molar value.
Legend:
[1] = target: T1, BDNF/NT-3 growth factors receptor (Homo sapiens, UniProt Q16620); assay: Inhibition of wild type human N-terminal GST-fusion tagged TRKB kinase domain (456 to 822 residues) expressed in baculovirus expression system by HTRF assay
[2] = target: T1, BDNF/NT-3 growth factors receptor; assay: Binding affinity to TRKB (unknown origin) assessed as dimerization by size exclusion chromatography

T1 sequence (Q16620 whole entry, the tested form may be a part): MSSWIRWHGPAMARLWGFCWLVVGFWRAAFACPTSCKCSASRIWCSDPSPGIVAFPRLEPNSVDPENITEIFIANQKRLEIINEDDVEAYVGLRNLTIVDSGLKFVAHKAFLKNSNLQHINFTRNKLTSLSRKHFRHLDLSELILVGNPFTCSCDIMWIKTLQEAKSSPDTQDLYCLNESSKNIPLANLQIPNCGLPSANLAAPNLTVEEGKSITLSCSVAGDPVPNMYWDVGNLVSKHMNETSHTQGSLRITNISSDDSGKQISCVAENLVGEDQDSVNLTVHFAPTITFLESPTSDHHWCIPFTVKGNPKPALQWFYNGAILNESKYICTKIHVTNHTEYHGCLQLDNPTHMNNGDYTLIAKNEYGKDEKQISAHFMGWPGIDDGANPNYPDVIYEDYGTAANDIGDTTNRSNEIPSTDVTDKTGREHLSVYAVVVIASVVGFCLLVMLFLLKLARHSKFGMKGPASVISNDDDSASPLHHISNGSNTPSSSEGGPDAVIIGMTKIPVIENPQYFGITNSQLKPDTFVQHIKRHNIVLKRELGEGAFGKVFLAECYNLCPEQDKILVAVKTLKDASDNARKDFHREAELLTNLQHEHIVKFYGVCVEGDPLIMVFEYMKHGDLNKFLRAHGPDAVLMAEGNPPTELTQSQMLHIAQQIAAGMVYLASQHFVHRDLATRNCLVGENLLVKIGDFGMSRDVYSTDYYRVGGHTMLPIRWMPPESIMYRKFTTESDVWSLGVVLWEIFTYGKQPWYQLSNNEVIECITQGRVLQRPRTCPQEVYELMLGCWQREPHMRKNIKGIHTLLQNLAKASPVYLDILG

Row | Structure (SMILES) | pIC50 [1] | Activity [2]
1 | CC(C)Oc1cc(Nc2nc(N[C@@H](C)c3ccc(F)cn3)ncc2Cl)n[nH]1 | 9.03 | –
2 | Nc1c(N2CCN(C3CCCCC3)CC2)cc(Nc2ccc(C(=O)O)cc2)c2c1C(=O)c1ccccc1C2=O | 4.03 | Not Active

From ChEMBL document CHEMBL4342423, “An isoform-selective inhibitor of tropomyosin receptor kinase A behaves as molecular glue” (Bioorg Med Chem Lett, 2020)
